Reference: ChEMBL document CHEMBL1201862, “PubChem BioAssay data set” (2004)
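1) Cells in 96-well plates. 2) Compound, 48 h, 5 concentrations. 3) Linear interpolation between surrounding doses. 4) Unreached endpoint = highest concentration. The concentration for 50% growth inhibition is given as GI50.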 Active and inactive are the calls of the source. Cut-off read from the data, not from the text of the source: active = GI50 up to about 1.1 µM and inactive = higher.

Assays:
Test in all cases: NCI anticancer screen, dose series, 48 h
RXF 631 = tested on: RXF 631
DLD-1 = tested on: DLD-1
SNB-78 = tested on: SNB-78
DMS-114 = tested on: DMS-114
KM-20L2 = tested on: KM-20L2
HOP-18 = tested on: HOP-18
M19-MEL = tested on: M19-MEL
DMS-273 = tested on: DMS-273
XF498 = tested on: XF498

| SMILES | GI50 (RXF 631) | GI50 (DLD-1) | GI50 (SNB-78) | GI50 (DMS-114) | GI50 (KM-20L2) | GI50 (HOP-18) | GI50 (M19-MEL) | GI50 (DMS-273) | GI50 (XF498) |
| --- | --- | --- | --- | --- | --- | --- | --- | --- | --- |
| Nc1nc(O)c2c(ncn2CC(O)CO)n1 (stereo not given) | > 100 µM (inactive) | > 100 µM (inactive) | > 100 µM (inactive) | > 100 µM (inactive) | > 100 µM (inactive) | > 100 µM (inactive) | > 100 µM (inactive) | > 100 µM (inactive) | – |
| CCN(CC)CC(C)(C)C(=O)/C=C/c1ccc(/C=C/C(=O)C(C)(C)CN(CC)CC)cc1 | – | 0.341 µM (active) | 1.41 µM (inactive) | 0.266 µM (active) | 0.617 µM (active) | – | 0.687 µM (active) | 0.234 µM (active) | 0.317 µM (active) |
| CCOC(=O)C(C)(C)Oc1ccc2c(-c3ccc(Cl)cc3)c(-c3ccc(Cl)cc3)c(=O)oc2c1 | > 100 µM (inactive) | > 100 µM (inactive) | – | > 100 µM (inactive) | > 100 µM (inactive) | – | > 100 µM (inactive) | > 100 µM (inactive) | – |
| CC1(OCc2ccccc2)C(=O)N2C1N(C(=O)OCc1ccccc1)CC2(C)C (stereo not given) | – | 54.3 µM (inactive) | – | 31.3 µM (inactive) | 55.8 µM (inactive) | – | 32.1 µM (inactive) | 53.6 µM (inactive) | 24.8 µM (inactive) |
| CCN(CC)C(=O)N1CCN(C=S)CC1 | – | > 100 µM (inactive) | > 100 µM (inactive) | > 100 µM (inactive) | > 100 µM (inactive) | > 100 µM (inactive) | > 100 µM (inactive) | > 100 µM (inactive) | – |
| Cn1nc2ccc3nccc(NCCNCCO)c3c2n1 | – | 33.2 µM (inactive) | 36.2 µM (inactive) | – | 25.8 µM (inactive) | – | 40.4 µM (inactive) | – | 35 µM (inactive) |
| Cn1c(=O)ccc2cc(C(=O)c3ccccc3)ccc21 | 64.3 µM (inactive) | > 100 µM (inactive) | – | 22.1 µM (inactive) | 73.5 µM (inactive) | 36.6 µM (inactive) | 55.3 µM (inactive) | 35.3 µM (inactive) | 16.7 µM (inactive) |
| N#Cc1cc([N+](=O)[O-])ccc1NC(=O)C(=O)Nn1c(S)nc2ccccc2c1=O | > 100 µM (inactive) | > 100 µM (inactive) | > 100 µM (inactive) | – | > 100 µM (inactive) | > 100 µM (inactive) | > 100 µM (inactive) | – | > 100 µM (inactive) |
| CCOC(=O)C(C)(C)Oc1ccc2c(-c3ccccc3)cc(=O)oc2c1 | – | 25.3 µM (inactive) | – | 21.9 µM (inactive) | 30.6 µM (inactive) | – | 32.2 µM (inactive) | 29 µM (inactive) | 16.4 µM (inactive) |
| COc1ccc(/C=C\c2cc(OC)c(OC)c(OC)c2)cc1OC | 0.195 µM (active) | 0.173 µM (active) | 0.0171 µM (active) | 0.105 µM (active) | 0.0771 µM (active) | 0.411 µM (active) | – | 0.0207 µM (active) | 0.122 µM (active) |
| O=[N+]([O-])c1ccc(-c2ccc(C3=Nn4c(CNc5ccccc5Cl)nnc4SC3)o2)cc1 | – | > 100 µM (inactive) | > 100 µM (inactive) | – | > 100 µM (inactive) | – | > 100 µM (inactive) | > 100 µM (inactive) | > 100 µM (inactive) |
| CC1=C(C(=O)Nc2ccccc2)C(c2ccc(N(C)C)cc2)C(C(=O)Nc2ccccc2)=C(C)N1 | – | 8.36 µM (inactive) | > 37.1 µM (inactive) | 0.211 µM (active) | 0.439 µM (active) | > 100 µM (inactive) | 0.685 µM (active) | 0.428 µM (active) | > 100 µM (inactive) |
| NNC(=O)C(=O)N/N=C1/CCCC1C(=O)CCC(=O)Nc1ccc(Cl)cc1 (stereo not given) | > 100 µM (inactive) | > 100 µM (inactive) | > 100 µM (inactive) | 63 µM (inactive) | 6.04 µM (inactive) | > 100 µM (inactive) | 89.3 µM (inactive) | 37.3 µM (inactive) | > 100 µM (inactive) |
| Cc1cccc(C(C)C)c1NC(=O)CCl | – | 65 µM (inactive) | 48.9 µM (inactive) | 20.8 µM (inactive) | 45.4 µM (inactive) | 53.7 µM (inactive) | 51.6 µM (inactive) | 69.2 µM (inactive) | – |
| COc1ccc(NC(=O)C2C(=O)N(c3ccc(OC)cc3)C(=O)/C2=N/O)cc1 (stereo not given) | – | 64.4 µM (inactive) | 46.8 µM (inactive) | 35.6 µM (inactive) | 48 µM (inactive) | 17.9 µM (inactive) | 26.5 µM (inactive) | 26.8 µM (inactive) | 14 µM (inactive) |
| c1ccc2c(c1)N=C(c1cccc3ccccc13)CC(c1ccc3c(c1)OCO3)S2 (stereo not given) | > 100 µM (inactive) | > 100 µM (inactive) | > 100 µM (inactive) | – | > 100 µM (inactive) | > 100 µM (inactive) | > 100 µM (inactive) | > 100 µM (inactive) | > 100 µM (inactive) |
| CN(C)CCNC(=O)c1cccc2c1nc(-c1ccc(F)cc1)c1ccccc12 | – | 2.45 µM (inactive) | 10.7 µM (inactive) | 4.42 µM (inactive) | – | 14.4 µM (inactive) | 5.52 µM (inactive) | 2.15 µM (inactive) | – |
| CC(=O)/C(=N\O)C(=O)NCc1ccccc1 | > 100 µM (inactive) | > 100 µM (inactive) | > 100 µM (inactive) | 29.4 µM (inactive) | > 100 µM (inactive) | > 100 µM (inactive) | – | > 100 µM (inactive) | – |
| O=C(Cc1ccccc1)NN1C(=O)C(Cl)C1c1cccc(O)c1 (stereo not given) | – | 14.8 µM (inactive) | 15.8 µM (inactive) | 13.8 µM (inactive) | 15.1 µM (inactive) | 20.6 µM (inactive) | 18 µM (inactive) | 16.1 µM (inactive) | 20.1 µM (inactive) |
| O=C(CN1CCN(c2ccccc2)CC1)N1CCc2c([nH]c3ccccc23)C1c1cccnc1 (stereo not given) | 33.3 µM (inactive) | > 53 µM (inactive) | 13.5 µM (inactive) | 26.9 µM (inactive) | > 100 µM (inactive) | > 100 µM (inactive) | > 95.9 µM (inactive) | 49 µM (inactive) | 24.1 µM (inactive) |
| CCCCCCCCCCSS(=O)(=O)c1ccc(C)cc1 | 7.28 µM (inactive) | 12.5 µM (inactive) | 10.9 µM (inactive) | 8.69 µM (inactive) | 16.6 µM (inactive) | 17.9 µM (inactive) | 11.2 µM (inactive) | 9.27 µM (inactive) | 13.3 µM (inactive) |
| CC[C@]12C=CCN3CCC4(c5cc([C@@]6(C(=O)OC)CC7CN(CCc8c6[nH]c6ccccc86)C[C@@H]6CCCC[C@H]76)c(OC)cc5N(C)C4[C@](O)(C(=O)OC)C1OC(C)=O)[C@@H]32 (stereo not given in full) | – | < 0.01 µM (active) | < 0.01 µM (active) | < 0.01 µM (active) | < 0.01 µM (active) | – | < 0.01 µM (active) | < 0.01 µM (active) | < 0.01 µM (active) |
| CCCCCCCCCC[C@@H](O)[C@@H]1CC[C@@H]([C@@H]2CC[C@@H]([C@@H](O)CCCCCCCCCC[C@H](O)CC3=CC(C)OC3=O)O2)O1 (stereo not given in full) | 1.97 µM (inactive) | 3.31 µM (inactive) | 3.8 µM (inactive) | < 0.01 µM (active) | 13.6 µM (inactive) | – | 2.22 µM (inactive) | 2.36 µM (inactive) | – |
| OC1[C@H]([C@H]2CCCC[C@@H]2O)CCC[C@@H]1[C@@H]1CCCC[C@H]1O (stereo not given in full) | – | > 100 µM (inactive) | 48.2 µM (inactive) | > 100 µM (inactive) | > 100 µM (inactive) | > 100 µM (inactive) | > 100 µM (inactive) | > 100 µM (inactive) | > 100 µM (inactive) |
